From patent publication US9133104B2 (Chroma Therapeutics Ltd., priority 2005, dated 2015)

Experiments:
[1] = target: T1, histone deacetylase activity (HeLa nuclear extract); assay: HDAC fluorescent activity assay (Biomol Fluor de Lys), HeLa nuclear extract; format: biochemical; settings: Fluor de Lys substrate, IC50 range
T1 construct: Histone deacetylase activity from crude nuclear extract derived from HeLa cells was used for screening
Procedure, shortened: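 Crude HeLa nuclear extract (20 mM Hepes, 100 mM KCl, 0.2 mM EDTA, 0.5 mM DTT, 0.2 mM PMSF, 20% glycerol) incubated with acetyl-lysine Fluor de Lys substrate ± inhibitor; developer generates fluorophore. Background-subtracted % of vehicle control; IC50 from eight-point variable-slope sigmoidal fit.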

[2] = tested on: U937 cancer cell line; assay: Cell inhibition assay (SRB cell viability), U937; format: cell-based; settings: Homo sapiens, U-937, U937 cells, 72 h, IC50 range
Procedure, shortened: (§1)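 Log-phase Hela, U937 and HUT cells were seeded at 1000 cells/well, grown 24 h, then exposed to compound (20 uM final) for 72 h. Viability was read by sulphorhodamine B staining and expressed as % inhibition relative to DMSO control. IC50 values came from sigmoidal variable-slope fits of eight concentrations.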

[3] = tested on: Hela cancer cell line; assay: Cell inhibition assay (SRB cell viability), Hela; format: cell-based; settings: Homo sapiens, HeLa, 72 h, Hela cells, IC50 range
Procedure, shortened: as §1

[4] = tested on: HUT cancer cell line; assay: Cell inhibition assay (SRB cell viability), HUT; format: cell-based; settings: HUT cells, 72 h, IC50 range
Procedure, shortened: as §1

Row | Compound | IC50 [1] | IC50 [2] | IC50 [3] | IC50 [4]
1 | O=C(CCCCCCC(=O)N1Cc2[nH]c3ccccc3c2[C@H](C(=O)N[C@@H](Cc2ccccc2)C(=O)OC2CCCC2)C1)NO [Compound 58, (S)-2-{[(S)-2-(7-Hydroxycarbamoyl-heptanoyl)-2,3,4,9-tetrahydro-1H-beta-carboline-4-carbonyl]-amino}-3-phenyl-propionic acid cyclopentyl ester] | 101 to 1000 nM | 330 to 3300 nM | 330 to 3300 nM | 330 to 3300 nM
2 | CC(C)C[C@H](NC(=O)c1cccc(NC(=O)CCCCCCC(=O)NO)c1)C(=O)OC1CCCC1 [Compound 62, (S)-2-[3-(7-Hydroxycarbamoyl-heptanoylamino)-benzoylamino]-4-methyl-pentanoic acid cyclopentyl ester] | 101 to 1000 nM | > 3300 nM | > 3300 nM | 330 to 3300 nM
3 | CCOC(=O)[C@H](Cc1ccccc1)NCc1cncc(NC(=O)CCCCCCC(=O)NO)c1 [Compound 66, (S)-2-{[5-(7-Hydroxycarbamoyl-heptanoylamino)-pyridin-3-ylmethyl]-amino}-3-phenyl-propionic acid ethyl ester] | 101 to 1000 nM | > 3300 nM | > 3300 nM | > 3300 nM
4 | CC(C)(C)OC(=O)[C@H](Cc1ccccc1)NCc1cncc(NC(=O)CCCCCCC(=O)NO)c1 [Compound 68, (S)-2-{[5-(7-Hydroxycarbamoyl-heptanoylamino)-pyridin-3-ylmethyl]-amino}-3-phenyl-propionic acid tert-butyl ester] | 101 to 1000 nM | 330 to 3300 nM | > 3300 nM | 330 to 3300 nM
5 | O=C(CCCCCCC(=O)Nc1cccc(CCN[C@H](C(=O)OC2CCCC2)c2ccccc2)c1)NO [Compound 71, (S)-{2-[3-(7-Hydroxycarbamoyl-heptanoylamino)-phenyl]-ethylamino}-phenyl-acetic acid cyclopentyl ester] | < 100 nM | < 330 nM | 330 to 3300 nM | 330 to 3300 nM
6 | O=C(CCCCCCC(=O)Nc1cccc(OCCCN[C@@H](Cc2ccccc2)C(=O)OC2CCCC2)c1)NO [Compound 75, (S)-2-{3-[3-(7-Hydroxycarbamoyl-heptanoylamino)-phenoxy]-propylamino}-3-phenyl-propionic acid cyclopentyl ester] | < 100 nM | < 330 nM | 330 to 3300 nM | < 330 nM
7 | O=C(CCCCCCC(=O)Nc1cccc(CNC(=O)N[C@@H](Cc2ccccc2)C(=O)OC2CCCC2)c1)NO [Compound 81, (S)-2-{3-[3-(7-Hydroxycarbamoyl-heptanoylamino)-benzyl]-ureido}-3-phenyl-propionic acid cyclopentyl ester] | < 100 nM | > 3300 nM | > 3300 nM | 330 to 3300 nM
8 | CC(C)C[C@H](NCc1ccc(NC(=O)CCCCCCC(=O)NO)cc1)C(=O)OC1CCCC1 [Compound 85, (S)-2-[4-(7-Hydroxycarbamoyl-heptanoylamino)-benzylamino]-4-methyl-pentanoic acid cyclopentyl ester] | 101 to 1000 nM | < 330 nM | > 3300 nM | 330 to 3300 nM
9 | CC(OC(C)(C)C)[C@H](NCc1ccc(NC(=O)CCCCCCC(=O)NO)cc1)C(=O)OC1CCCC1 (stereo partly drawn) [Compound 88, (S)-3-tert-Butoxy-2-[4-(7-hydroxycarbamoyl-heptanoylamino)-benzylamino]-butyric acid cyclopentyl ester] | 101 to 1000 nM | < 330 nM | 330 to 3300 nM | 330 to 3300 nM
10 | CC(C)(C)OC[C@H](NCc1ccc(NC(=O)CCCCCCC(=O)NO)cc1)C(=O)OC1CCCC1 [Compound 89, (S)-3-tert-Butoxy-2-[4-(7-hydroxycarbamoyl-heptanoylamino)-benzylamino]-propionic acid cyclopentyl ester] | 101 to 1000 nM | < 330 nM | > 3300 nM | 330 to 3300 nM
11 | O=C(CCCCCCC(=O)Nc1ccc(CN[C@@H](Cc2ccccc2)C(=O)OC2CCCC2)cc1)NO [Compound 91, (S)-2-[4-(7-Hydroxycarbamoyl-heptanoylamino)-benzylamino]-3-phenyl-propionic acid cyclopentyl ester] | 101 to 1000 nM | 330 to 3300 nM | > 3300 nM | 330 to 3300 nM
12 | CC(C)C[C@H](NC(=O)[C@@H]1Cc2ccc(NC(=O)CCCCCCC(=O)NO)cc2CN1)C(=O)OC1CCCC1 [Compound 96, (S)-2-{[(S)-7-(7-Hydroxycarbamoyl-heptanoylamino)-1,2,3,4-tetrahydro-isoquinoline-3-carbonyl]-amino}-4-methyl-pentanoic acid cyclopentyl ester] | 101 to 1000 nM | 330 to 3300 nM | > 3300 nM | 330 to 3300 nM
13 | O=C(Cc1ccc(OCCCC(=O)N[C@@H](Cc2ccccc2)C(=O)OC2CCCC2)cc1)Nc1ccc2sc(C(=O)NO)cc2c1 [Compound 102, (S)-2-(4-{4-[(2-Hydroxycarbamoyl-benzo[b]thiophen-5-ylcarbamoyl)-methyl]-phenoxy}-butyrylamino)-3-phenyl-propionic acid cyclopentyl ester] | 101 to 1000 nM | 330 to 3300 nM | > 3300 nM | > 3300 nM
14 | O=C(NO)c1cc2ccc(CNCc3ccc(CN[C@@H](Cc4ccc(O)cc4)C(=O)OC4CCCC4)cc3)cc2s1 [Compound 106, (S)-2-(4-{[(2-Hydroxycarbamoyl-benzo[b]thiophen-6-ylmethyl)-amino]-methyl}-benzylamino)-3-(4-hydroxy-phenyl)-propionic acid cyclopentyl ester] | < 100 nM | < 330 nM | 330 to 3300 nM | < 330 nM
15 | CC(OC(C)(C)C)[C@H](NCc1ccc(CNCc2ccc3cc(C(=O)NO)sc3c2)cc1)C(=O)OC1CCCC1 (stereo partly drawn) [Compound 108, (S)-3-tert-Butoxy-2-(4-{[(2-hydroxycarbamoyl-benzo[b]thiophen-6-ylmethyl)-amino]-methyl}-benzylamino)-butyric acid cyclopentyl ester] | 101 to 1000 nM | 330 to 3300 nM | 330 to 3300 nM | 330 to 3300 nM

The remaining lines, values ahead:

Row | IC50 [1] | IC50 [2] | IC50 [3] | IC50 [4] | Compound
16 | 101 to 1000 nM | 330 to 3300 nM | 330 to 3300 nM | 330 to 3300 nM | O=C(CCCCCCC(=O)Nc1cccc(C(=O)N[C@H](C(=O)OC2CCCC2)c2ccccc2)c1)NO [Compound 60, (S)-[3-(7-Hydroxycarbamoyl-heptanoylamino)-benzoylamino]-phenyl-acetic acid cyclopentyl ester]
17 | < 100 nM | < 330 nM | 330 to 3300 nM | 330 to 3300 nM | O=C(CCCCCCC(=O)Nc1cccc(OCCN[C@@H](Cc2ccccc2)C(=O)OC2CCCC2)c1)NO [Compound 73, (S)-2-{2-[3-(7-Hydroxycarbamoyl-heptanoylamino)-phenoxy]-ethylamino}-3-phenyl-propionic acid cyclopentyl ester]
18 | < 100 nM | < 330 nM | 330 to 3300 nM | < 330 nM | O=C(CCCCCCC(=O)Nc1cccc(OCCCN[C@H](C(=O)OC2CCCC2)c2ccccc2)c1)NO [Compound 77, (S)-{3-[3-(7-Hydroxycarbamoyl-heptanoylamino)-phenoxy]-propylamino}-phenyl-acetic acid cyclopentyl ester]
19 | 101 to 1000 nM | 330 to 3300 nM | 330 to 3300 nM | 330 to 3300 nM | O=C(CCCCCCC(=O)Nc1ccc(CN[C@@H](C(=O)OC2CCCC2)c2ccccc2)cc1)NO [Compound 83, (R)-[4-(7-Hydroxycarbamoyl-heptanoylamino)-benzylamino]-phenyl-acetic acid cyclopentyl ester]
20 | 101 to 1000 nM | < 330 nM | > 3300 nM | 330 to 3300 nM | O=C(CCCCCCC(=O)Nc1ccc(CN[C@H](C(=O)OC2CCCC2)C2CCCCC2)cc1)NO [Compound 86, (S)-Cyclohexyl-[4-(7-hydroxycarbamoyl-heptanoylamino)-benzylamino]-acetic acid cyclopentyl ester]
21 | < 100 nM | 330 to 3300 nM | 330 to 3300 nM | 330 to 3300 nM | O=C(CCCCCCC(=O)Nc1cccc(OCCCC(=O)N[C@H](C(=O)OC2CCCC2)c2ccccc2)c1)NO [Compound 92, (S)-{4-[3-(7-Hydroxycarbamoyl-heptanoylamino)-phenoxy]-butyrylamino}-phenyl-acetic acid cyclopentyl ester]
22 | 101 to 1000 nM | 330 to 3300 nM | 330 to 3300 nM | 330 to 3300 nM | CC(C)C[C@H](NC(=O)c1ccc(NC(=O)CCCCCCC(=O)NO)cc1)C(=O)OC1CCCC1 [Compound 98, (S)-2-[4-(7-Hydroxycarbamoyl-heptanoylamino)-benzoylamino]-4-methyl-pentanoic acid cyclopentyl ester]
23 | < 100 nM | 330 to 3300 nM | > 3300 nM | 330 to 3300 nM | O=C(CCCCCCNC(=O)c1cc2cc(CCC(=O)N[C@@H](Cc3ccccc3)C(=O)OC3CCCC3)ccc2[nH]1)NO [Compound 100, (S)-2-{3-[2-(6-Hydroxycarbamoyl-hexylcarbamoyl)-1H-indol-5-yl]-propionylamino}-3-phenyl-propionic acid cyclopentyl ester]
24 | 101 to 1000 nM | < 330 nM | 330 to 3300 nM | 330 to 3300 nM | O=C(NO)c1cc2ccc(CNCc3ccc(CN[C@@H](Cc4ccccc4)C(=O)OC4CCCC4)cc3)cc2s1 [Compound 104, (S)-2-(4-{[(2-Hydroxycarbamoyl-benzo[b]thiophen-6-ylmethyl)-amino]-methyl}-benzylamino)-3-phenyl-propionic acid cyclopentyl ester]
